Experimental data from patent US20170087174A1, “COMBINATION THERAPY REGIMEN FOR TREATMENT OF HCV” (JANSSEN PHARMACEUTICALS, INC., priority 2015, published 2017).
Where two headings read alike, the source gives them in different places.

Assays:
[1] = PK of single agents vs fixed dose combinations (FDC), single oral dose in healthy volunteers; assay type: in vivo, human; settings: for Cmax / AUC(0-t) / AUC(0-inf) / Tmax: human, plasma, oral; for Cmax: read-out: Cmax (mean ± SD); for AUC(0-t): read-out: AUClast (mean ± SD); for AUC(0-inf): read-out: AUC∞ (mean ± SD); for Tmax: read-out: tmax (median [range])
Method: SMV (100 mg), ODV (50 mg), and Compound (III) (800 mg) were administered as three different formulations or together as single doses in vivo to healthy volunteers. The arms of the study included: • Arm 1 (Reference Arm): Single oral doses of single agents, one SMV 100-mg capsule, one ODV 50-mg tablet as granule layered solid dispersion with copovidone and poloxamers, and two Compound (III) 400-mg tablets, administered together. • Arm 2: Single oral dose of fixed dose combination (FDC02): SMV 100 mg+ODV 50 mg as a spray dried solid dispersion with HPMC-AS L in a ratio ODV/HPMC-AS L 1/1 w/w+Compound (III) 800 mg • Arm 3: Single oral dose of fixed dose combination (FDC04): SMV 100 mg+ODV 50 mg as a spray dried solid dispersion with HPMC-AS L in a ratio ODV/HPMC-AS L 1/3 w/w+Compound (III) 800 mg • Arm 4: Single oral dose of fixed dose combination (FDC01): SMV 100 mg+ODV 50 mg as a spray dried solid dispersion with copovidone and poloxamers+Compound (III) 800 mg
PK parameters, including Cmax, tmax, AUClast, and AUC∞ were measured for Compound (III), ODV, SMV, and metabolites Compound A-I and Compound A-3 for each Arm of the study. Arms that included fixed dose combinations (FDC) (Arm 2, Arm 3, and Arm 4) were then compared to a single oral dose (Arm 1, the reference Arm). Table 9, Table 10, Table 11, Table 12 and Table 13 display relevant PK parameters and FIG. 9, FIG. 10, FIG. 11, FIG. 12, and FIG. 13 depict the plasma concentration over time of SMV, ODV, Compound A-1, and Compound A-3 for each Arm of the study.

[2] = tested on: CYP (cytochrome P450 enzymes); assay: CYP inhibition in vitro
[3] = Phase 2a open-label combination study: pharmacokinetics (exposure); assay type: in vivo, human; settings: in vivo
Method: A randomized, Phase 2a, open-label study was carried out to evaluate the safety, pharmacokinetics and efficacy of the combination of Compound (III), Odalasvir and Simeprevir in Genotype 1 treatment-naïve subjects with chronic hepatitis C. Other treatment-naïve subjects included Genotype 2, 3, 4, 5 and 6.
The aim of the study was to determine the efficacy, pharmacokinetics (PK), and safety of Compound (III)+Odalasvir±SMV in HCV-infected subjects.
This was an open-label study evaluating various dosing regimens of Compound (III)+Odalasvir±SMV for 6-8 weeks in treatment-naïve HCV-infected subjects with varying clinical characteristics (e.g., GT 1 or 3, presence/absence of compensated Child Pugh A cirrhosis). Efficacy, PK and safety evaluations were conducted during and through 24 weeks post dosing. Up to 15 cohorts were enrolled; data was generated from cohorts that have completed dosing.

[4] = Arm 1 (reference): single agents together
[5] = Arm 2 (FDC02) vs reference (Arm 1)
[6] = Arm 3 (FDC04) vs reference (Arm 1)
[7] = Arm 4 (FDC01) vs reference (Arm 1)
[8] = Arm 1 (reference): single agents together, SMV 100-mg capsule, ODV 50-mg tablet, two Compound (III) 400-mg tablets
[9] = Arm 2: FDC02, SMV 100 mg + ODV 50 mg (ODV/HPMC-AS L 1/1 w/w) + Compound (III) 800 mg
[10] = Arm 3: FDC04, SMV 100 mg + ODV 50 mg (ODV/HPMC-AS L 1/3 w/w) + Compound (III) 800 mg
[11] = Arm 4: FDC01, SMV 100 mg + ODV 50 mg (copovidone and poloxamers) + Compound (III) 800 mg

| SMILES | t1/2term (mean ± SD) [1, 4] [h] | Least Square Means Ratio, AUClast [1, 5] [%] | Least Square Means Ratio, Cmax [1, 5] [%] | t1/2term (mean ± SD) ([1]; Arm 2: FDC02) [h] | Least Square Means Ratio, AUClast [1, 6] [%] | Least Square Means Ratio, Cmax [1, 6] [%] | t1/2term (mean ± SD) ([1]; Arm 3: FDC04) [h] | Least Square Means Ratio, AUClast [1, 7] [%] | Least Square Means Ratio, Cmax [1, 7] [%] | t1/2term (mean ± SD) ([1]; Arm 4: FDC01) [h] | Cmax [1, 8] [ng/mL] | AUC(0-t) [1, 4] [ng·h/mL] | AUC(0-inf) [1, 4] [ng·h/mL] | Tmax [1, 4] [h] | Cmax [1, 9] [ng/mL] | AUC(0-t) ([1]; Arm 2: FDC02) [ng·h/mL] | AUC(0-inf) ([1]; Arm 2: FDC02) [ng·h/mL] | Tmax ([1]; Arm 2: FDC02) [h] | Cmax [1, 10] [ng/mL] | AUC(0-t) ([1]; Arm 3: FDC04) [ng·h/mL] | further results |
| --- | --- | --- | --- | --- | --- | --- | --- | --- | --- | --- | --- | --- | --- | --- | --- | --- | --- | --- | --- | --- | --- |
| C[C@H](NP(=O)(O)OC[C@@]1(F)O[C@@H](n2ccc(=O)[nH]c2=O)[C@](C)(O)[C@@H]1O)C(=O)O [Compound A-3] | 2.6 ± 1.4 | 103.24 | 102.81 | 2.3 ± 0.6 | 115.78 | 119.82 | 2.9 ± 1.5 | 116.82 | 123.77 | 2.5 ± 0.7 | 163 ± 61.8 | 800 ± 307 | 823 ± 311 | 3 | 163 ± 45.2 | 790 ± 157 | 817 ± 133 | 3 | 189 ± 49.7 | 895 ± 223 | Least Square Means Ratio, AUC∞ [1, 5]: 104.40%; Least Square Means Ratio, AUC∞ [1, 6]: 114.92%; Least Square Means Ratio, AUC∞ [1, 7]: 115.62%; AUC(0-inf) ([1]; Arm 3: FDC04): 914 ± 226 ng·h/mL; Tmax ([1]; Arm 3: FDC04): 3.5 h; Cmax [1, 11]: 197 ± 62.1 ng/mL; AUC(0-t) ([1]; Arm 4: FDC01): 909 ± 244 ng·h/mL; AUC(0-inf) ([1]; Arm 4: FDC01): 926 ± 245 ng·h/mL; Tmax ([1]; Arm 4: FDC01): 4 h; IC50 [2]: > 48 µM |
| C[C@]1(O)[C@H](n2ccc(=O)[nH]c2=O)O[C@](F)(CO)[C@H]1O [Compound A-1] | 19.6 ± 2.7 | 118.54 | 133.00 | 20.5 ± 3.3 | 121.29 | 119.83 | 20.2 ± 3.5 | 120.45 | 121.37 | 18.3 ± 3.5 | 498 ± 154 | 3910 ± 1150 | 4530 ± 1800 | 4 | 681 ± 268 | 4680 ± 1550 | 4370 ± 1340 | 4 | 598 ± 192 | 4710 ± 1310 | AUC(0-inf) ([1]; Arm 3: FDC04): 5380 ± 1560 ng·h/mL; Tmax ([1]; Arm 3: FDC04): 4 h; Cmax [1, 11]: 607 ± 208 ng/mL; AUC(0-t) ([1]; Arm 4: FDC01): 4690 ± 1420 ng·h/mL; AUC(0-inf) ([1]; Arm 4: FDC01): 4560 ± 787 ng·h/mL; Tmax ([1]; Arm 4: FDC01): 4 h; IC50 [2]: > 40 µM; increase of exposure with dose [3]: less than proportionally |
